The target of experiment [1] is HLA-B5801 (Homo sapiens, UniProt P01889, A329T/C349S/D201E/D98Y/E176V/E187L/E204Q/E69T/G107R/I218V/I90N/K202T/L105A/L119I/N104I/N87E/Q89R/Q94S/R106L/R155S/R180L/R86G/S101N/S121R/S35A/S48A/T118I/V127L/V306I/V36M/Y140S/Y91M). As to the kind of experiment: Competitive peptide binding assay, CIR-B5801. The note with it: HMy2.CIR-B5801 cells, reference Cy5-[…], class from inhibition at 5 and 15 μM, flow cytometry MFI; read-out: Binding affinity with HLA-B5801. As to the method: (§1) Then, competitive peptide binding assays were performed.
(Flow cytometry measures light scatter and fluorescence of single cells or particles in a stream.)

Experiment [2] concerns the target HLA-B1301 (Homo sapiens, UniProt P01889, A65T/A93T/A95T/D138N/D201E/D98Y/E176V/E204Q/E69M/E70A/G107R/K202T/L105A/L119I/N104T/N87E/Q94N/R106L/R155S/R169L/R180L/S101N/S121R/S35A/S48T/T118I/V127L/V36M/Y140L/Y91S). As to the kind of experiment: Competitive peptide binding assay, CIR-B1301. As to conditions: HMy2.CIR-B1301 cells, reference Cy5-[…], class from inhibition at 5 and 15 μM, flow cytometry MFI; read-out: Binding affinity with HLA-B1301. As to the method: as §1

For experiment [3], the target named is HLA-B3501 (Homo sapiens, UniProt P01889, A329T/A93T/A95T/C349S/D201E/D98Y/E176V/E187L/E204Q/E69T/I218V/K202T/L119I/Q94N/R155S/R180L/S121R/S35A/S48A/T118I/V127L/V306I/V36M/Y140S/Y91F). As to the kind of experiment: Competitive peptide binding assay, CIR-B3501. The note with it: HMy2.CIR-B3501 cells, reference Cy5-[…], class from inhibition at 5 and 15 μM, flow cytometry MFI; read-out: Binding affinity with HLA-B3501. The method, then: as §1

Experiment [4] concerns the target HLA-B1302 (Homo sapiens, UniProt P01889, A65T/A93T/A95T/D138N/D201E/D98Y/E176V/E204Q/E69M/E70A/G107R/K202T/L105A/L119W/N104T/N87E/Q94N/R106L/R155S/R169L/R180L/S101N/S121T/S35A/S48T/V127L/V36M/Y140L/Y91S). As to the kind of experiment: Competitive peptide binding assay, CIR-B1302. The note with it: HMy2.CIR-B1302 cells, reference Cy5-MMWYWGPSL, class from inhibition at 5 and 15 μM, flow cytometry MFI; read-out: Binding affinity with HLA-B1302. The method, then: as §1

Experiment [5] concerns the target HLA-B4001 (Homo sapiens, UniProt P01889, A65T/A93T/A95T/D138N/D98Y/E176V/E69K/N87E/Q56L/Q94N/R180L/S121R/S35A/S48T/T167S/V36M/W171L/Y33H/Y91S). The experiment in a line: Competitive peptide binding assay, CIR-B4001. As to conditions: HMy2.CIR-B4001 cells, reference Cy5-[…], class from inhibition at 5 and 15 μM, flow cytometry MFI; read-out: Binding affinity with HLA-B4001. As to the method: as §1

The target in experiment [6] is HLA-B4601 (Homo sapiens, UniProt P01889, A329T/A93R/C349S/D201E/E100V/E187L/E204Q/E69M/E70A/I90K/K202T/N87E/R155S/R180W/S121R/S35A/S48A/V306I/V36M/Y140S). The experiment in a line: Competitive peptide binding assay, CIR-B4601. As to conditions: for IC50: HMy2.CIR-B4601 cells, reference Cy5-[…], class from inhibition at 5 and 15 μM, flow cytometry MFI, read-out: Binding affinity with HLA-B4601; for inhibition at 5 µM: read-out: Inhibition % of Cy5-reference peptide binding, CIR-B4601, 5μM peptide; for inhibition at 15 µM: read-out: Inhibition % of Cy5-reference peptide binding, CIR-B4601, 15μM peptide. As to the method: as §1

Experiment [7] deals with HLA-B1502 (Homo sapiens, UniProt P01889, A329T/A93T/A95T/C349S/D201E/D98Y/E187L/E204Q/E69M/E70A/H137Y/K202T/L119I/Q94N/R155S/R180L/S121R/S35A/S48A/T118I/V306I/V36M/Y140S/Y91S). The experiment in a line: Competitive peptide binding assay, CIR-B1502. The note with it: HMy2.CIR-B1502 cells, reference Cy5-[…], class from inhibition at 5 and 15 μM, flow cytometry MFI; read-out: Binding affinity with HLA-B1502. The method, then: as §1

Experiment [8] deals with HLA-B1501 (Homo sapiens, UniProt P01889, A329T/A93T/A95T/C349S/D201E/D98Y/E187L/E204Q/E69M/E70A/K202T/N87E/Q94N/R155S/R180W/S121R/S35A/S48A/V306I/V36M/Y140S/Y91S). The experiment in a line: Competitive peptide binding assay, CIR-B1501. As to conditions: HMy2.CIR-B1501 cells, reference Cy5-[…], class from inhibition at 5 and 15 μM, flow cytometry MFI; read-out: Binding affinity with HLA-B1501. The method, then: as §1

The target in experiment [9] is HLA-C0302 (Homo sapiens, UniProt P10321, A176E/A330V/A97T/C25G/C350S/D114A/D33Y/E197K/L127V/L171W/L218V/M285V/M309V/M331V/P208H/Q277E/Q291P/R243W/R45H/S123Y/S297R/S48A/T118I/T187L/T329A/T363A/V319A). The experiment in a line: Competitive peptide binding assay, CIR-C0302. The note with it: HMy2.CIR-C0302 cells, reference Cy5-[…], class from inhibition at 5 and 15 μM, flow cytometry MFI; read-out: Binding affinity with HLA-C0302. The method, then:
as §1

For experiment [10], the target named is HLA-C0801 (Homo sapiens, UniProt P10321, A176T/A330V/A97T/C350S/D114A/D138N/D33Y/E201K/E299G/L171W/L218V/M285V/M309V/M331V/P208H/Q277E/Q291P/R59Q/S123Y/S140F/S297R/S48A/T329A/T363A/V319A/V328M). As to the kind of experiment: Competitive peptide binding assay, CIR-C0801. As to conditions: HMy2.CIR-C0801 cells, reference Cy5-[…], class from inhibition at 5 and 15 μM, flow cytometry MFI; read-out: Binding affinity with HLA-C0801. The method, then:
as §1

The target in experiment [11] is HLA-C0702 (Homo sapiens, UniProt P10321). As to the kind of experiment: Competitive peptide binding assay, CIR-C0702.
Experiment [12] addresses HLA-C0401 (Homo sapiens, UniProt P10321, A176E/A330V/A35S/A73E/C25G/C350S/D138N/D33S/E299K/L171W/L180R/L218V/M285V/M309V/M331V/N104K/P208H/Q277E/Q291P/R243W/R38W/S101N/S123F/S140F/S297R/S48A/T329A/T363A/V319A/V327M). The experiment in a line: Competitive peptide binding assay, CIR-C0401. The note with it: HMy2.CIR-C0401 cells, reference Cy5-[…], class from inhibition at 5 and 15 μM, flow cytometry MFI; read-out: Binding affinity with HLA-C0401. As to the method:
as §1

Experiment [13] addresses HLA-C0304 (Homo sapiens, UniProt P10321, A176E/A330V/A97T/C25G/C350S/D114A/D33Y/E197K/L119I/L127V/L171W/L218V/M285V/M309V/M331V/P208H/Q277E/Q291P/R243W/R45H/S123Y/S140Y/S297R/S48A/T118I/T187L/T329A/T363A/V319A). The experiment in a line: Competitive peptide binding assay, CIR-C0304. As to conditions: HMy2.CIR-C0304 cells, reference Cy5-[…], class from inhibition at 5 and 15 μM, flow cytometry MFI; read-out: Binding affinity with HLA-C0304. As to the method:
as §1

Peptide text beside a SMILES is read from it. Bounds are passed on as bounds.

With `CC[C@H](C)[C@H](NC(=O)[C@@H](NC(=O)CNC(=O)[C@H](CC(N)=O)NC(=O)[C@H](CO)NC(=O)[C@H](CC(=O)O)NC(=O)[C@H](C)N)[C@@H](C)O)C(=O)N[C@H](C(=O)N[C@H](C(=O)O)C(C)C)[C@@H](C)O` [Epitope Y216] (H-ADSNGTITV-OH; N-terminus and C-terminus assumed), the IC50 in experiment [1] was 5 to 15 µM; in experiment [2] it was over 15 µM; in experiment [3] it was over 15 µM; in experiment [4], over 15 µM; in experiment [5], 5 to 15 µM; in [6] it was over 15 µM.

Consider `C[C@H](NC(=O)CNC(=O)[C@H](C)NC(=O)[C@@H](NC(=O)[C@@H](N)Cc1c[nH]c2ccccc12)[C@@H](C)O)C(=O)N[C@@H](C)C(=O)N[C@@H](C)C(=O)N[C@@H](Cc1ccc(O)cc1)C(=O)N[C@@H](Cc1ccc(O)cc1)C(=O)O` [Epitope Y174] (H-WTAGAAAYY-OH; N-terminus and C-terminus assumed), for which the IC50 was over 15 µM in experiment [1]; under 5 µM in experiment [7]; over 15 µM in [3]; 5 to 15 µM in [8]; over 15 µM in experiment [5]; over 15 µM in experiment [6].

Turning to `CC[C@H](C)[C@H](NC(=O)[C@H](CC(N)=O)NC(=O)[C@@H](NC(=O)[C@H](CCC(=O)O)NC(=O)[C@@H]1CCCN1C(=O)[C@H](CC(N)=O)NC(=O)[C@H](Cc1ccccc1)NC(=O)[C@H](CO)NC(=O)[C@@H](N)Cc1c[nH]c2ccccc12)[C@@H](C)O)C(=O)O` [Epitope Y297] (H-WSFNPETNI-OH; N-terminus and C-terminus assumed), the IC50 was over 15 µM in experiment [2], under 5 µM in experiment [8] and over 15 µM in experiment [5].

As a reminder, the inhibition is how much of the control response was suppressed. Turning to `CC(C)C[C@H](NC(=O)[C@H](CC(C)C)NC(=O)[C@H](CC(C)C)NC(=O)[C@H](CC(N)=O)NC(=O)[C@H](CO)NC(=O)[C@H](CS)NC(=O)[C@H](CCC(=O)O)NC(=O)[C@@H](N)[C@@H](C)O)C(=O)N[C@@H](CCC(N)=O)C(=O)N[C@@H](Cc1ccc(O)cc1)C(=O)O` [Epitope Y231] (H-TECSNLLLQY-OH; N-terminus and C-terminus assumed), the IC50 in [2] was 5 to 15 µM; in [7] it was over 15 µM; in [4], over 15 µM; in experiment [8] it was over 15 µM; in [5], over 15 µM; in experiment [6], under 5 µM. Besides, the inhibition at 5 µM in experiment [6] was found to be 73.8%. The inhibition at 15 µM in [6] is 89.3%.

For the molecule `CC(C)C[C@H](NC(=O)[C@@H](NC(=O)[C@H](CCCNC(=N)N)NC(=O)[C@H](CO)NC(=O)[C@@H](NC(=O)[C@H](C)NC(=O)[C@@H](N)C(C)C)[C@@H](C)O)[C@@H](C)O)C(=O)N[C@@H](CO)C(=O)N[C@@H](Cc1ccc(O)cc1)C(=O)O` [Epitope M72] (H-VATSRTLSY-OH; N-terminus and C-terminus assumed), the IC50 was over 15 µM in experiment [9]; under 5 µM in experiment [10]; over 15 µM in experiment [11]; over 15 µM in [12]; over 15 µM in [13].

In the case of `CC[C@H](C)[C@H](NC(=O)[C@@H](NC(=O)[C@H](CC(C)C)NC(=O)[C@H](CC(N)=O)NC(=O)[C@H](Cc1c[nH]c2ccccc12)NC(=O)[C@H](CCC(N)=O)NC(=O)[C@H](CCC(=O)O)NC(=O)[C@@H](N)CC(C)C)C(C)C)C(=O)NCC(=O)O` [Epitope Y215] (H-LEQWNLVIG-OH; N-terminus and C-terminus assumed), the IC50 in experiment [1] was over 15 µM; in experiment [2] it was 5 to 15 µM; in experiment [3], over 15 µM; in [5] it was 5 to 15 µM; in [6] it was 5 to 15 µM. Moreover, in experiment [6], the inhibition at 5 µM amounted to 47.2%. Besides, the inhibition at 15 µM in [6] amounted to 87.3%.

The record behind these values is publication PMC12133982, “Predominant T-cell epitopes of SARS-CoV-2 restricted by multiple prevalent HLA-B and HLA-C allotypes in Northeast Asia” (Frontiers in Immunology, 2025).
